Experiment: in vitro
Conditions: human, hek293t cells

Structure (SMILES)	viability at 48 h, 25 µM [%]
C[C@@H](NC(=O)CCl)c1ccccc1 [6-O20, 2-chloro-N-[(1R)-1-phenylethyl]acetamide]	121
CCN(Cc1ccccc1)C(=O)CCl [6-O21, N-benzyl-2-chloro-N-ethylacetamide]	1.53
COCc1ccc(CNC(=O)CCl)cc1 [6-O22, 2-chloro-N-{[4-(methoxymethyl)phenyl]methyl}acetamide]	99.4
CC(Cl)C(=O)N1CCNC(=O)C1Cc1nc2ccccc2o1 (centres unmarked) [6-P03, 3-[(1,3-benzoxazol-2-yl)methyl]-4-(2-chloropropanoyl)piperazin-2-one]	110
COc1ccc(C2=NN(C(=O)CCl)C(c3cccc(F)c3)C2)cc1 (centres unmarked) [6-P04, 2-chloro-1-[5-(3-fluorophenyl)-3-(4-methoxyphenyl)-4,5-dihydro-1H-pyrazol-1-yl]ethan-1-one]	0.182
CC(Cl)C(=O)NCc1cnc(N2CCOCC2)s1 (centres unmarked) [6-P05, 2-chloro-N-{[2-(morpholin-4-yl)-1,3-thiazol-5-yl]methyl}propanamide]	116
CC(Cl)C(=O)NC(=O)NCc1ccccc1 (centres unmarked) [6-P06, 1-benzyl-3-(2-chloropropanoyl)urea]	123
CC(Cl)C(=O)NC(C)c1nc(-c2cccnc2)cs1 (centres unmarked) [6-P07, 2-chloro-N-{1-[4-(pyridin-3-yl)-1,3-thiazol-2-yl]ethyl}propanamide]	115
CC(Cl)C(=O)Nc1ccc(F)c(F)c1 (centres unmarked) [6-P08, 2-chloro-N-(3,4-difluorophenyl)propanamide]	101
CC(Cl)C(=O)NC(C)C(c1ccccc1Cl)n1cccn1 (centres unmarked) [6-P09, 2-chloro-N-[1-(2-chlorophenyl)-1-(1H-pyrazol-1-yl)propan-2-yl]propanamide]	119
COc1ccc(CNC(=O)C(C)Cl)cc1OC (centres unmarked) [6-P10, 2-chloro-N-[(3,4-dimethoxyphenyl)methyl]propanamide]	113
CC(Cl)C(=O)N(Cc1cnn(C)c1)c1ccc(F)cc1 (centres unmarked) [6-P11, 2-chloro-N-(4-fluorophenyl)-N-[(1-methyl-1H-pyrazol-4-yl)methyl]propanamide]	114
CC(Cl)C(=O)NC(C)c1ccns1 (centres unmarked) [6-P12, 2-chloro-N-[1-(1,2-thiazol-5-yl)ethyl]propanamide]	115
CC(Cl)C(=O)NC(C)c1ncn(C)n1 (centres unmarked) [6-P13, 2-chloro-N-[1-(1-methyl-1H-1,2,4-triazol-3-yl)ethyl]propanamide]	112
CC(Cl)C(=O)N[C@@H]1CCc2c(C#N)cccc21 (stereo partly drawn) [6-P14, 2-chloro-N-[(1R)-4-cyano-2,3-dihydro-1H-inden-1-yl]propanamide]	114
CC(Cl)C(=O)Nc1ccc2c(c1)ncn2CCN(C)C (centres unmarked) [6-P15, 2-chloro-N-{1-[2-(dimethylamino)ethyl]-1H-1,3-benzodiazol-5-yl}propanamide]	113
CC(Cl)C(=O)N1CCN(C(c2ccccc2)C(F)(F)F)CC1 (centres unmarked) [6-P16, 2-chloro-1-[4-(2,2,2-trifluoro-1-phenylethyl)piperazin-1-yl]propan-1-one]	114
CC(Cl)C(=O)N1CCN(Cc2cc(=O)n3ccsc3n2)CC1 (centres unmarked) [6-P17, 7-{[4-(2-chloropropanoyl)piperazin-1-yl]methyl}-5H-[1,3]thiazolo[3,2-a]pyrimidin-5-one]	113
CC(Cl)C(=O)N1CCCC(CC(=O)OC(C)(C)C)CC1 (centres unmarked) [6-P18, tert-butyl 2-[1-(2-chloropropanoyl)azepan-4-yl]acetate]	93.9
Cc1noc(C)c1C(C)CNC(=O)C(C)Cl (centres unmarked) [6-P19, 2-chloro-N-[2-(3,5-dimethyl-1,2-oxazol-4-yl)propyl]propanamide]	115
CC(Cl)C(=O)N(C)Cc1cc(Cl)cn1C (centres unmarked) [6-P21, 2-chloro-N-[(4-chloro-1-methyl-1H-pyrrol-2-yl)methyl]-N-methylpropanamide]	103
O=C(CCl)NC1CN(C(=O)C2CC2)C1 [6-P22, 2-chloro-N-(1-cyclopropanecarbonylazetidin-3-yl)acetamide]	112
CC(Cl)C(=O)N1CCCCC1c1cnn(C)c1 (centres unmarked) [7-A03, 2-chloro-1-[2-(1-methyl-1H-pyrazol-4-yl)piperidin-1-yl]propan-1-one]	98.8
CC(Cl)C(=O)NCc1nc(N(C)C)no1 (centres unmarked) [7-A04, 2-chloro-N-{[3-(dimethylamino)-1,2,4-oxadiazol-5-yl]methyl}propanamide]	92.2
CC(Cl)C(=O)NCc1nc2c(s1)CC(c1ccccc1)CC2 (centres unmarked) [7-A05, 2-chloro-N-[(6-phenyl-4,5,6,7-tetrahydro-1,3-benzothiazol-2-yl)methyl]propanamide]	57.5
CC(Cl)C(=O)NCC1(C2CC2)CCC1 (centres unmarked) [7-A06, 2-chloro-N-[(1-cyclopropylcyclobutyl)methyl]propanamide]	81.1
CC(Cl)C(=O)NCC(C)c1nncn1C (centres unmarked) [7-A07, 2-chloro-N-[2-(4-methyl-4H-1,2,4-triazol-3-yl)propyl]propanamide]	84.8

Structure (SMILES)	viability at 48 h, 25 µM [%]
CC(Cl)C(=O)N1CCCC(n2ccc(C(F)(F)F)n2)C1 (centres unmarked) [7-A08, 2-chloro-1-{3-[3-(trifluoromethyl)-1H-pyrazol-1-yl]piperidin-1-yl}propan-1-one]	80.7
CC(Cl)C(=O)N1CCOCC1c1cccn1C (centres unmarked) [7-A09, 2-chloro-1-[3-(1-methyl-1H-pyrrol-2-yl)morpholin-4-yl]propan-1-one]	82
CC(Cl)C(=O)NCc1nnc(C2CCC2)n1C (centres unmarked) [7-A10, 2-chloro-N-[(5-cyclobutyl-4-methyl-4H-1,2,4-triazol-3-yl)methyl]propanamide]	87.1
CC(Cl)C(=O)NC1(c2ccccc2)CCOCC1 (centres unmarked) [7-A11, 2-chloro-N-(4-phenyloxan-4-yl)propanamide]	108
CC(Cl)C(=O)NCc1cc(-c2ccccc2)on1 (centres unmarked) [7-A13, 2-chloro-N-[(5-phenyl-1,2-oxazol-3-yl)methyl]propanamide]	74.7
CC(Cl)C(=O)NCCc1cn(C)nn1 (centres unmarked) [7-A14, 2-chloro-N-[2-(1-methyl-1H-1,2,3-triazol-4-yl)ethyl]propanamide]	82.7
CC(Cl)C(=O)N1CCN(Cc2ccc3ccccc3n2)CC1 (centres unmarked) [7-A15, 2-chloro-1-{4-[(quinolin-2-yl)methyl]piperazin-1-yl}propan-1-one]	83.2
Cc1ccc(N2CCN(C(=O)C(C)Cl)CC2=O)o1 (centres unmarked) [7-A16, 4-(2-chloropropanoyl)-1-(5-methylfuran-2-yl)piperazin-2-one]	74.7
CC(Cl)C(=O)NC1COc2ccc(F)cc21 (centres unmarked) [7-A17, 2-chloro-N-(5-fluoro-2,3-dihydro-1-benzofuran-3-yl)propanamide]	74
CC(Cl)C(=O)N1CCC(Oc2ccc(C3CC3)cn2)C1 (centres unmarked) [7-A18, 2-chloro-1-{3-[(5-cyclopropylpyridin-2-yl)oxy]pyrrolidin-1-yl}propan-1-one]	60.4
Cc1nnnn1CCNC(=O)C(C)Cl (centres unmarked) [7-A19, 2-chloro-N-[2-(5-methyl-1H-1,2,3,4-tetrazol-1-yl)ethyl]propanamide]	79
CC(Cl)C(=O)N1CC(C(=O)N2CCN(C)CC2)Oc2ccccc21 (centres unmarked) [7-A20, 2-chloro-1-[2-(4-methylpiperazine-1-carbonyl)-3,4-dihydro-2H-1,4-benzoxazin-4-yl]propan-1-one]	77.1
Cc1ccc(NC(=O)N2CCN(C(=O)C(C)Cl)CC2)cc1Cl (centres unmarked) [7-A21, N-(3-chloro-4-methylphenyl)-4-(2-chloropropanoyl)piperazine-1-carboxamide]	70.8
CC(Cl)C(=O)N1CCCC1c1cccc(N(C)C)c1 (centres unmarked) [7-A22, 2-chloro-1-{2-[3-(dimethylamino)phenyl]pyrrolidin-1-yl}propan-1-one]	68.7
Cc1nn(-c2ccccc2)c(C)c1CN(C)C(=O)CCl [7-B03, 2-chloro-N-[(3,5-dimethyl-1-phenyl-1H-pyrazol-4-yl)methyl]-N-methylacetamide]	0.804
O=C(CCl)NC1CCCc2nc(-c3ccccc3)sc21 (centres unmarked) [7-B04, 2-chloro-N-(2-phenyl-4,5,6,7-tetrahydro-1,3-benzothiazol-7-yl)acetamide]	0.382
Cc1noc(C)c1CN(C(=O)CCl)C1CC1 [7-B05, 2-chloro-N-cyclopropyl-N-[(3,5-dimethyl-1,2-oxazol-4-yl)methyl]acetamide]	0.0855
O=C(CCl)NCc1nn(-c2ccccc2)c2c1CCC2 [7-B06, 2-chloro-N-({1-phenyl-1H,4H,5H,6H-cyclopenta[c]pyrazol-3-yl}methyl)acetamide]	0.565
Cc1nc2cc(=O)[nH]n2c(C)c1CNC(=O)C(C)Cl (centres unmarked) [7-B07, 2-chloro-N-({5,7-dimethyl-2-oxo-1H,2H-pyrazolo[1,5-a]pyrimidin-6-yl}methyl)propanamide]	96.1
O=C(CCl)NCC1CCN(C(=O)Cc2ccccc2)C1 (centres unmarked) [7-B08, 2-chloro-N-{[1-(2-phenylacetyl)pyrrolidin-3-yl]methyl}acetamide]	0.975
Cc1ccc(C2OCCCC2CNC(=O)C(C)Cl)cc1 (centres unmarked) [7-B09, 2-chloro-N-{[2-(4-methylphenyl)oxan-3-yl]methyl}propanamide]	91.9
CN1C(=O)c2ccccc2C1CNC(=O)CCl (centres unmarked) [7-B10, 2-chloro-N-[(2-methyl-3-oxo-2,3-dihydro-1H-isoindol-1-yl)methyl]acetamide]	4.11
CC(Cl)C(=O)N1CCCC1c1nccc(C(F)(F)F)n1 (centres unmarked) [7-B11, 2-chloro-1-{2-[4-(trifluoromethyl)pyrimidin-2-yl]pyrrolidin-1-yl}propan-1-one]	106
O=C(CCl)NCC(=O)N(c1ccccc1)c1ccccc1 [7-B12, 2-chloro-N-[(diphenylcarbamoyl)methyl]acetamide]	1.21
Cc1cc(N2CCCC(NC(=O)C(C)Cl)C2=O)n(C)n1 (centres unmarked) [7-B13, 2-chloro-N-[1-(1,3-dimethyl-1H-pyrazol-5-yl)-2-oxopiperidin-3-yl]propanamide]	95.8
O=C(CCl)NC1CCCOc2c(F)cccc21 (centres unmarked) [7-B14, 2-chloro-N-(9-fluoro-2,3,4,5-tetrahydro-1-benzoxepin-5-yl)acetamide]	0.886

Reference: publication PMC11995724, “Antibiotic target discovery by integrated phenotypic and activity-based profiling of electrophilic fragments” (Cell chemical biology, 2025)
